From patent US20160303245A1, “FATTY ACID DERIVATIVES OF DIMERIC INHIBITORS OF PSD-95” (UNIVERSITY OF COPENHAGEN, priority 2013, published 2016)
Like-named read-outs stand apart in the source and are kept apart here.

Key:
[1] = biological target: T1, HSA (Homo sapiens, UniProt P02768); assay: Transil XL HSA binding assay (immobilized HSA, unbound compound quantified by RP-HPLC)
T1 construct: purchased Sovicell GMBH, Leipzig, Germany
Protocol: The synthesized FA-linked dimeric ligands (1-12) were evaluated for their HSA affinity using a Transil^XL HSA binding assay kit (Sovicell GMBH, Leipzig, Germany). […] The assay kit consisted of prefilled wells with increasing concentrations of immobilized HSA as well as two control wells without HSA. The HSA had been immobilized in a random fashion to ensure that all binding sites on HSA were available. To conduct the assay, the wells were incubated with a known concentration of the tested compounds, and the unbound amount of compound was quantified using analytical RP-HPLC (C8 column). The fraction of unbound drug (fu) for each data point was calculated from the RP-HPLC data by comparison to a control sample without HSA. […] In eq. 1, it is assumed that the concentration of drug-bound HSA ([HSA-D]) is much lower than the total concentration of HSA in the well ([HSA-D]<<cHSA). The assay kit has been designed such that the assumption is valid for compounds where fu>1%. The calculated KD-values were used to calculate fb at physiological concentration of HSA (588 μM) using equation 2.

[2] = In vitro plasma stability assay (modified, GnHCl before TCA precipitation); format: in vitro ADME; conditions: human plasma; for half-life: 1st order decay fit
Protocol: The plasma-stability of 1, 4, 7 and 13 was evaluated in a modified version of an in vitro plasma stability assay (Bach et al, Angew. Chem, Int. Ed, 2009, 48, 9685-9689). In the original procedure, the investigated compound was incubated in human plasma. Samples were then taken out at appropriate timepoints and the serum proteins were removed by precipitation with trichloroacetic acid (TCA) followed by analysis of the supernatants by RP-HPLC. The obtained peak areas were normalized to the amount at T0 and fitted to a 1st order decay model to calculate the half-life. When this method was applied to the FA-linked dimeric ligands, sample recoveries were low (<5%). This was caused by the removal of the FA-linked dimeric ligands as HSA-bound complexes during the TCA precipitation. Therefore dissolution of the sample in solid guanidine hydrochloride (GnHCI) to a final concentration of 6M was performed prior to the TCA precipitation. The purpose of this was to unfold the HSA in the sample, releasing the FA-linked dimeric ligand.

[3] = In vivo pharmacokinetics, blood concentration by LC-MS/MS after single s.c. bolus injection; set-up: species or system male Wistar rats; conditions: sc, rat
Description: To determine the pharmacokinetic properties of FA-linked compounds we measured the concentration of selected compounds in blood by LC-MS/MS following a single subcutaneous (s.c.) bolus injection in male Wistar rats (FIG. 5). From this, it was apparent that all FA-linked dimeric ligands have longer T1/2 and greater Tmax than dimeric ligand without FA (UCCB01-125) (Table 4 and FIG. 5). […] The increased Tmax is explained by a prolonged absorption from the injection site. Overall, these properties enable administration by s.c.depot injections and thereby slow and consistent release of compound into the blood, whereby fewer administrations are needed to maintain pharmaceutical relevant blood concentrations.

[4] = biological target: PSD-95 PDZ1-2 (Homo sapiens, UniProt P78352); assay: In vitro fluorescence polarization (FP) competition binding assay, in TBS and modified with 1% HSA
PSD-95 PDZ1-2, sequence (P78352 61-249 limits assumed): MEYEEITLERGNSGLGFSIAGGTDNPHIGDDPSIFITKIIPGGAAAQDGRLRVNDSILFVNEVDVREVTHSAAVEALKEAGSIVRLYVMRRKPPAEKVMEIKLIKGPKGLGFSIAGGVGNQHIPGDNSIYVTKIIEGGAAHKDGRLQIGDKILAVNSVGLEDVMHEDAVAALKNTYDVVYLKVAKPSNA
Protocol: Affinity to PSD-95 was measured using an in vitro fluorescence polarization (FP) assay as described by Bach et al (PNAS USA, 2012, 109, 3317-3322). First, a saturation binding curve was obtained to determine KD values for the interaction between a dimeric fluorescent probe and PSD-95 PDZ1-2. Increasing concentrations of PDZ1-2 were added to a constant concentration (0.5 nM) of the probe. The fluorescence polarization of the samples was measured at excitation/emission wavelengths of 635/670 nm and the FP values were fitted to a one site binding model using the program GraphPad Prism. […] The FP values were fitted to a one site competition (variable slope) model in GraphPad Prism. The resulting IC50 were converted to competition inhibition constants, Ki values, as described (Nikolovska-Coleska et al, Anal Biochem, 2004, 332, 261-273). The modified FP assay was conducted as described above with 1% HSA in the assay. The synthesized FA-linked dimeric ligands were evaluated for their affinity to PSD-95 PDZ1-2 in the FP assay. […] We first measured the affinities using a simple tris-buffered saline (TBS) buffer (Table 2, FIG. 3A); but furthermore, we investigated if HSA influenced the ability of the FA-linked dimers to bind PSD95 PDZ1-2 by conducting the FP assay with HSA present in the assay buffer (Table 2, FIG. 3B). […] For a traditional small-molecule drug, it is commonly accepted that the unbound fraction of the drug is free to diffuse across membranes and exerts the physiological effect by interacting with its target (Berezhkovskiy et al, J Pharm Sci 2007, 96, 249-257). I.e. if the drug is bound to another molecule, then it cannot interact with the target at the same time.

[5] = dose 10 mg/kg, mean ± SEM, n = 3
[6] = dose 15 mg/kg, mean ± SEM, n = 3
[7] = dose 3 mg/kg, mean ± SEM, n = 3
[8] = dose 30 mg/kg, mean ± SEM, n = 3
[9] = FP data (TBS+HSA) corrected for calculated fu, read-out: Ki(PSD95), free ligand
[10] = FP in TBS with 1% HSA (~150 μM), mean ± SEM, n ≧ 3, read-out: Ki(PSD95) + HSA
[11] = FP in TBS, mean ± SEM, n ≧ 3, read-out: Ki(PSD95)

T1 sequence (P02768 25-609): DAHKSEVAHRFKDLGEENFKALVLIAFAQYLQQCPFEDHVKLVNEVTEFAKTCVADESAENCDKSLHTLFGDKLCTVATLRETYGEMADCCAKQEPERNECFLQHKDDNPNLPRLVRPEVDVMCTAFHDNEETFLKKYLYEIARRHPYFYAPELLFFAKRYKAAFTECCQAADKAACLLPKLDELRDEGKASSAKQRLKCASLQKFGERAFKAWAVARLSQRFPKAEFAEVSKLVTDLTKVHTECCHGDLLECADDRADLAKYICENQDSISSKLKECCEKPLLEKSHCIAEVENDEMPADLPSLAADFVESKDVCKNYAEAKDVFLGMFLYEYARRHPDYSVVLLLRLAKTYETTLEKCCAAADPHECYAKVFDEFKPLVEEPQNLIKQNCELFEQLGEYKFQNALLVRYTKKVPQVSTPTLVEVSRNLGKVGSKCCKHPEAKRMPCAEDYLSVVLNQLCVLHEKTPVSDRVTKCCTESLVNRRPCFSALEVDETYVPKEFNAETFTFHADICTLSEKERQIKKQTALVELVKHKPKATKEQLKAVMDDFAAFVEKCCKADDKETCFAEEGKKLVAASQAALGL

SMILES	Kd [1] [µM]	fraction unbound [1]	In vitro plasma stability [2]	half-life [2] [h]	Tmax [3, 5] [h]	half-life [3, 5] [h]	half-life ([3]; single s.c. bolus injection) [h]	Tmax [3, 6] [h]	half-life [3, 6] [h]	Tmax [3, 7] [h]	half-life [3, 7] [h]	Tmax [3, 8] [h]	half-life [3, 8] [h]	Ki [4, 9] [µM]	Ki [4, 10] [µM]	Ki [4, 11] [µM]
CCCCCCCCCCCCCCCCCC(=O)NCCCC(=O)N(CCOCCOCCC(=O)N[C@H](C(=O)N[C@@H](CCC(=O)O)C(=O)N[C@H](C(=O)N[C@@H](CC(=O)O)C(=O)N[C@H](C(=O)O)C(C)C)[C@@H](C)O)[C@@H](C)CC)CCOCCOCCC(=O)N[C@H](C(=O)N[C@@H](CCC(=O)O)C(=O)N[C@H](C(=O)N[C@@H](CC(=O)O)C(=O)N[C@H](C(=O)O)C(C)C)[C@@H](C)O)[C@@H](C)CC [Compound 13]	83	0.356	highly stable	> 24	8	16.3 ± 2.81	> 8									
CCCCCCCCCCCC(=O)NCCCC(=O)N(CCOCCOCCC(=O)N[C@H](C(=O)N[C@@H](CCC(=O)O)C(=O)N[C@H](C(=O)N[C@@H](C)C(=O)N[C@H](C(=O)O)C(C)C)[C@@H](C)O)[C@@H](C)CC)CCOCCOCCC(=O)N[C@H](C(=O)N[C@@H](CCC(=O)O)C(=O)N[C@H](C(=O)N[C@@H](C)C(=O)N[C@H](C(=O)O)C(C)C)[C@@H](C)O)[C@@H](C)CC [Compound 1]		0.151	degraded faster	23.6				0.833 ± 0.167	0.768 ± 0.045							
CC[C@H](C)[C@H](NC(=O)CCOCCOCCOCCOCCOCCC(=O)N[C@H](C(=O)N[C@@H](CCC(=O)O)C(=O)N[C@H](C(=O)N[C@@H](C)C(=O)N[C@H](C(=O)O)C(C)C)[C@@H](C)O)[C@@H](C)CC)C(=O)N[C@@H](CCC(=O)O)C(=O)N[C@H](C(=O)N[C@@H](C)C(=O)N[C@H](C(=O)O)C(C)C)[C@@H](C)O [UCCB01-125, reference compound]	154	0.507		1.7						0.5	0.561 ± 0.101	0.5	0.45 ± 0.068			
CC[C@H](C)[C@H](NC(=O)CCOCCOCCN(CCOCCOCCC(=O)N[C@H](C(=O)N[C@@H](CCC(=O)O)C(=O)N[C@H](C(=O)N[C@@H](C)C(=O)N[C@H](C(=O)O)C(C)C)[C@@H](C)O)[C@@H](C)CC)C(=O)CCCNC(=O)CCCCCCCCCCCCCCCCC(=O)O)C(=O)N[C@@H](CCC(=O)O)C(=O)N[C@H](C(=O)N[C@@H](C)C(=O)N[C@H](C(=O)O)C(C)C)[C@@H](C)O [Compound 4]	19.4 ± 3.6	0.115	highly stable	> 24			> 8	4.67 ± 0.66	8.13 ± 0.5					0.654 ± 0.034	5.72 ± 0.298	0.0114 ± 0.0006
CCCCCCCCCCCCCCCCCC(=O)N[C@@H](CCC(=O)N(CCOCCOCCC(=O)N[C@H](C(=O)N[C@@H](CCC(=O)O)C(=O)N[C@H](C(=O)N[C@@H](C)C(=O)N[C@H](C(=O)O)C(C)C)[C@@H](C)O)[C@@H](C)CC)CCOCCOCCC(=O)N[C@H](C(=O)N[C@@H](CCC(=O)O)C(=O)N[C@H](C(=O)N[C@@H](C)C(=O)N[C@H](C(=O)O)C(C)C)[C@@H](C)O)[C@@H](C)CC)C(=O)O [Compound 7]	6.8 ± 1.2	0.043	highly stable	> 24	6 ± 1.15	10.7 ± 0.58	> 8							0.0591	1.39 ± 0.184	0.017
